Laboratory results published in USRE38257E1, “Piperdine derivatives and hypotensives containing the same” (Ajinomoto Co., Inc., priority 1988, dated 2003).

System: male spontaneously hypertensive rats
Assay: Decrease in systolic blood pressure in spontaneously hypertensive rats after intravenous bolus injection, indirect (tail-cuff) method
Format: in vivo, rat
Conditions: for Decrease in systolic blood pressure (mmHg) time after administration (hour) 0.5: 0.5 hour after administration; for Decrease in systolic blood pressure (mmHg) time after administration (hour) 4: 4 hours after administration
Protocol: As test animals, four male spontaneously hypertensive rats (weight 400 to 440 g) that were sufficiently adapted for feeding and in which hypertension was confirmed were used.
Physiological saline aqueous solution containing 2.5% Nicolle and 2.5% ethanol of sample was intravenously administered by bolus injection at a dose of 1 ml per 1 kg of body weight. Systolic blood pressure after administration was measured by the indirect (tail-cuff) method.

[1] = dose 10 mg/kg i.v. bolus, hydrochloride, 10 mg/kg

Cl.O=C(CCCN1CCC(=C2c3ccccc3C=Cc3ccccc32)CC1)c1ccco1 [Example 233, 4-(4-(5H-Dibenzo[a,d]cyclohepten-5-ylidene)-1-piperidinyl)-1-(2-furyl)-1-butanone hydrochloride]
Decrease in systolic blood pressure (mmHg) time after administration (hour) 0.5 (dose 10 mg/kg i.v. bolus): −35 mmHg
Decrease in systolic blood pressure (mmHg) time after administration (hour) 4 (dose 10 mg/kg i.v. bolus): −1 mmHg

5-(4-(5H-Dibenzo[a,d]cyclohepten-5-ylidene)-1-piperidinyl)-2-isopropyl-2-phenylvaleronitrile hydrochloride [Example 122]
Decrease in systolic blood pressure (mmHg) time after administration (hour) 0.5 (dose 10 mg/kg i.v. bolus): −120 mmHg
Decrease in systolic blood pressure (mmHg) time after administration (hour) 4 (dose 10 mg/kg i.v. bolus): −62 mmHg

COC(=O)C1(CCCCN2CCC(=C3c4ccccc4C=Cc4ccccc43)CC2)CCCCC1.Cl [Example 219, 1-(4-(4-(5H-Dibenzo[a,d]cyclohepten-5-ylidene)-1-piperidinyl)-butyl)-1-methoxycarbonylcyclohexane hydrochloride]
Decrease in systolic blood pressure (mmHg) time after administration (hour) 0.5 (dose 10 mg/kg i.v. bolus): −104 mmHg
Decrease in systolic blood pressure (mmHg) time after administration (hour) 4 (dose 10 mg/kg i.v. bolus): −33 mmHg

C1=Cc2ccccc2C(=C2CCN(CCCOc3ccccc3)CC2)c2ccccc21.Cl [Example 20, 3-(4-(5H-Dibenzo[a,d]cyclohepten-5-ylidene)-1-piperidinyl)-1-phenoxypropane hydrochloride]
Decrease in systolic blood pressure (mmHg) time after administration (hour) 0.5 (dose 10 mg/kg i.v. bolus): −37 mmHg
Decrease in systolic blood pressure (mmHg) time after administration (hour) 4 (dose 10 mg/kg i.v. bolus): 2 mmHg

C1=Cc2ccccc2C(=C2CCN(CC3CCCCC3)CC2)c2ccccc21.Cl [Example 7, 1-Cyclohexylmethyl-4-(5H-dibenzo[a,d]cyclohepten-5-ylidene)piperidine hydrochloride]
Decrease in systolic blood pressure (mmHg) time after administration (hour) 0.5 (dose 10 mg/kg i.v. bolus): −57 mmHg
Decrease in systolic blood pressure (mmHg) time after administration (hour) 4 (dose 10 mg/kg i.v. bolus): −15 mmHg

COc1cccc(CN2CCC(=C3c4ccccc4C=Cc4ccccc43)CC2)c1OC.Cl [Example 173, 4-(5H-Dibenzo[a,d]cyclohepten-5-ylidene)-1-(2,3-dimethoxybenzyl)piperidine hydrochloride]
Decrease in systolic blood pressure (mmHg) time after administration (hour) 0.5 (dose 10 mg/kg i.v. bolus): −98 mmHg
Decrease in systolic blood pressure (mmHg) time after administration (hour) 4 (dose 10 mg/kg i.v. bolus): −25 mmHg

Cl.N#CCCCN1CCC(=C2c3ccccc3C=Cc3ccccc32)CC1 [Example 166, 1-Cyano-4-[4-(5H-dibenzo[a,d]cyclohepten-5-ylidene)-1-piperidinyl)propane hydrochloride]
Decrease in systolic blood pressure (mmHg) time after administration (hour) 0.5 [1]: −45 mmHg
Decrease in systolic blood pressure (mmHg) time after administration (hour) 4 [1]: 6 mmHg

3-(4-(5H-Dibenzo[a,d]cyclohepten-5-ylidene)-1-piperidinyl)-1-(2-pyridyl)-1-propane hydrochloride [Example 284]
Decrease in systolic blood pressure (mmHg) time after administration (hour) 0.5 (dose 3 mg/kg i.v. bolus): −151 mmHg
Decrease in systolic blood pressure (mmHg) time after administration (hour) 4 (dose 3 mg/kg i.v. bolus): −40 mmHg

COc1cc(C=CCN2CCC(=C3c4ccccc4C=Cc4ccccc43)CC2)ccc1OC(C)=O.Cl [Example 366, 1-(4-Acetoxy-3-methoxycinnamyl)-4-(5H-Dibenzo[a,d]cyclohepten-5-ylidene)-1-piperidine hydrochloride]
Decrease in systolic blood pressure (mmHg) time after administration (hour) 0.5 (dose 3 mg/kg i.v. bolus): −152 mmHg
Decrease in systolic blood pressure (mmHg) time after administration (hour) 4 (dose 3 mg/kg i.v. bolus): −113 mmHg

5-(4-(5H-Dibenzo[a,d]cyclohepten-5-ylidene)-1-piperidine hydrochloride [Example 116]
Decrease in systolic blood pressure (mmHg) time after administration (hour) 0.5 (dose 10 mg/kg i.v. bolus): −36 mmHg
Decrease in systolic blood pressure (mmHg) time after administration (hour) 4 (dose 10 mg/kg i.v. bolus): −12 mmHg

COc1ccc(C2(CCCN3CCC(=C4c5ccccc5C=Cc5ccccc54)CC3)OCCO2)cc1OC.Cl [Example 222]
Decrease in systolic blood pressure (mmHg) time after administration (hour) 0.5 (dose 10 mg/kg i.v. bolus): −94 mmHg
Decrease in systolic blood pressure (mmHg) time after administration (hour) 4 (dose 10 mg/kg i.v. bolus): −5 mmHg

CCCCCCCN1CCC(=C2c3ccccc3C=Cc3ccccc32)CC1.Cl [Example 134, 4-(5H-Dibenzo[a,d]cyclohepten-5-ylidene)-1-heptylpiperidine hydrochloride]
Decrease in systolic blood pressure (mmHg) time after administration (hour) 0.5 (dose 10 mg/kg i.v. bolus): −115 mmHg
Decrease in systolic blood pressure (mmHg) time after administration (hour) 4 (dose 10 mg/kg i.v. bolus): −30 mmHg

Cl.N#Cc1ccccc1CN1CCC(=C2c3ccccc3C=Cc3ccccc32)CC1 [Example 158, 1-(2-Cyanobenzyl)-4-(5H-dibenzo[a,d]cyclohepten-5-ylidene)piperidine hydrochloride]
Decrease in systolic blood pressure (mmHg) time after administration (hour) 0.5 (dose 10 mg/kg i.v. bolus): −8 mmHg
Decrease in systolic blood pressure (mmHg) time after administration (hour) 4 (dose 10 mg/kg i.v. bolus): 7 mmHg

COC(=O)C1(CCCCCN2CCC(=C3c4ccccc4C=Cc4ccccc43)CC2)CCCCC1.Cl [Example 313, 1-(5-(4-(5H-Dibenzo[a,d]cyclohepten-5-ylidene)-1-piperidinyl)-1-pentyl)-1-methoxycarbonylcyclohexane hydrochloride]
Decrease in systolic blood pressure (mmHg) time after administration (hour) 0.5 (dose 10 mg/kg i.v. bolus): −154 mmHg
Decrease in systolic blood pressure (mmHg) time after administration (hour) 4 (dose 10 mg/kg i.v. bolus): −85 mmHg

Cl.O=C(CCCN1CCC(=C2c3ccccc3C=Cc3ccccc32)CC1)c1cccs1 [Example 234, 4-(4-(5H-Dibenzo[a,d]cyclohepten-5-ylidene)-1-piperidinyl)-1-(2-thienyl)-1-butanone hydrochloride]
Decrease in systolic blood pressure (mmHg) time after administration (hour) 0.5 (dose 10 mg/kg i.v. bolus): −96 mmHg
Decrease in systolic blood pressure (mmHg) time after administration (hour) 4 (dose 10 mg/kg i.v. bolus): −2 mmHg

Cl.O=C(CCCN1CCC(=C2c3ccccc3C=Cc3ccccc32)CC1)C1CCCCC1 [Example 176, 1-Cyclohexyl-3,(4-(5H-dibenzo[a,d]cyclohepten-5-ylidene)-1-piperidinyl)propylketone hydrochloride]
Decrease in systolic blood pressure (mmHg) time after administration (hour) 0.5 (dose 10 mg/kg i.v. bolus): −105 mmHg
Decrease in systolic blood pressure (mmHg) time after administration (hour) 4 (dose 10 mg/kg i.v. bolus): −10 mmHg

COc1ccc(C(=O)CCN2CCC(=C3c4ccccc4C=Cc4ccccc43)CC2)cc1OC.Cl [Example 168, 3-(4-(5H-Dibenzo[a,d]cyclohepten-5-ylidene)-1-piperidinyl)-3′,4′-dimethoxypropiophenone hydrochloride]
Decrease in systolic blood pressure (mmHg) time after administration (hour) 0.5 (dose 10 mg/kg i.v. bolus): −108 mmHg
Decrease in systolic blood pressure (mmHg) time after administration (hour) 4 (dose 10 mg/kg i.v. bolus): 0 mmHg

COc1ccc(C(=O)CCCN2CCC(=C3c4ccccc4CSc4ccccc43)CC2)cc1OC.Cl [Example 229, 4-(4-(5H-Dibenzo[a,d]thiepin-5-ylidene)-1-piperidinyl)-3+,4+-dimethoxybutyrophenone hydrochloride]
Decrease in systolic blood pressure (mmHg) time after administration (hour) 0.5 (dose 3 mg/kg i.v. bolus): −77 mmHg
Decrease in systolic blood pressure (mmHg) time after administration (hour) 4 (dose 3 mg/kg i.v. bolus): −14 mmHg

COCC(=O)Oc1cccc(C=CCN2CCC(=C3c4ccccc4C=Cc4ccccc43)CC2)c1.Cl [Example 369, 4-(5H-Dibenzo[a,d]cyclohepten-5-ylidene)-1-(3-(2-methoxyacetoxy)cinnamyl)piperidine hydrochloride]
Decrease in systolic blood pressure (mmHg) time after administration (hour) 0.5 (dose 10 mg/kg i.v. bolus): −101 mmHg
Decrease in systolic blood pressure (mmHg) time after administration (hour) 4 (dose 10 mg/kg i.v. bolus): −83 mmHg

Cl.O=C(NCCN1CCCCC1=C1c2ccccc2C=Cc2ccccc21)c1ccc([N+](=O)[O-])cc1 [Example 237, N-(2-(5H-Dibenzo[a,d]cyclohepten-5-ylidene)-1-piperidinyl)ethyl-4-nitrobenzamide hydrochloride]
Decrease in systolic blood pressure (mmHg) time after administration (hour) 0.5 (dose 10 mg/kg i.v. bolus): −65 mmHg
Decrease in systolic blood pressure (mmHg) time after administration (hour) 4 (dose 10 mg/kg i.v. bolus): −14 mmHg

CCC(=O)Nc1ccc(C=CCN2CCC(=C3c4ccccc4C=Cc4ccccc43)CC2)cc1.Cl [Example 370, 4-(5H-Dibenzo[a,d]cyclohepten-5-ylidene)-1-(4-propanoylaminocinnamyl)piperidine hydrochloride]
Decrease in systolic blood pressure (mmHg) time after administration (hour) 0.5 (dose 10 mg/kg i.v. bolus): −99 mmHg
Decrease in systolic blood pressure (mmHg) time after administration (hour) 4 (dose 10 mg/kg i.v. bolus): −69 mmHg

C1=Cc2ccccc2C(=C2CCN(CCCOC3CCCCC3)CC2)c2ccccc21.Cl [Example 218, Cyclohexyl 3-(4-(5H-Dibenzo[a,d]cyclohpetan-5-ylidene)-1-piperidinyl)propylether hydrochloride]
Decrease in systolic blood pressure (mmHg) time after administration (hour) 0.5 (dose 10 mg/kg i.v. bolus): −97 mmHg
Decrease in systolic blood pressure (mmHg) time after administration (hour) 4 (dose 10 mg/kg i.v. bolus): −11 mmHg

CC(=O)Nc1ccc(C=CCN2CCC(=C3c4ccccc4CCc4ccccc43)CC2)cc1.Cl.Cl [Example 352, 1-(4-Acetylaminocinnamyl)-4-(10,11 dihydro-5H-Dibenzo[a,d]cyclohepten-5-ylidene)piperidine dihydrochloride]
Decrease in systolic blood pressure (mmHg) time after administration (hour) 0.5 (dose 3 mg/kg i.v. bolus): −93 mmHg
Decrease in systolic blood pressure (mmHg) time after administration (hour) 4 (dose 3 mg/kg i.v. bolus): −60 mmHg

O=C(O)C(CCN1CCC(=C2c3ccccc3C=Cc3ccccc32)CC1)C1CCCCC1 (stereo not drawn) [Example 238, 2-Cyclohexyl-4-(4-(5H-dibenzo[a,d]cyclohepten-5-ylidene)-1-piperidinyl)butyric acid]
Decrease in systolic blood pressure (mmHg) time after administration (hour) 0.5 (dose 10 mg/kg i.v. bolus): −14 mmHg
Decrease in systolic blood pressure (mmHg) time after administration (hour) 4 (dose 10 mg/kg i.v. bolus): −5 mmHg

COC1=C(OC)CC2=CC=CC(CN3CCC(=C4c5ccccc5C=Cc5ccccc54)CC3)=CC2=C1.Cl [Example 319, 6-(4-(5H-Dibenzo[a,d]cyclohepten-5-ylidene)-1-piperidinyl)methyl-2,3-dimethoxybenzocycloheptene hydrochloride]
Decrease in systolic blood pressure (mmHg) time after administration (hour) 0.5 (dose 10 mg/kg i.v. bolus): −104 mmHg
Decrease in systolic blood pressure (mmHg) time after administration (hour) 4 (dose 10 mg/kg i.v. bolus): −20 mmHg

Cl.O=c1[nH]c2ccccc2c(=O)n1CCN1CCC(=C2c3ccccc3C=Cc3ccccc32)CC1 [Example 28]
Decrease in systolic blood pressure (mmHg) time after administration (hour) 0.5 (dose 10 mg/kg i.v. bolus): −52 mmHg
Decrease in systolic blood pressure (mmHg) time after administration (hour) 4 (dose 10 mg/kg i.v. bolus): 4 mmHg

C1=Cc2ccccc2C(=C2CCN(CCCCCc3ccccc3)CC2)c2ccccc21.Cl [Example 16, 5-(4-(5H-Dibenzo[a,d]cyclohepten-5-ylidene)-1-piperidinyl)-1-phenylpentane hydrochloride]
Decrease in systolic blood pressure (mmHg) time after administration (hour) 0.5 (dose 10 mg/kg i.v. bolus): −114 mmHg
Decrease in systolic blood pressure (mmHg) time after administration (hour) 4 (dose 10 mg/kg i.v. bolus): −30 mmHg
